# Measurements from PubChem BioAssay (NCI).
#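 Briefly, cells in 96-well plates were exposed to five compound concentrations for 48 h, and endpoints were estimated by linear interpolation. Abbreviation: GI50, concentration required for 50% inhibition of growth. TGI: total growth inhibition.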
# Key:
# Test in all cases: NCI-60 cell line screen, 48 h
# MDA-MB-231 breast = tested on: MDA-MB-231 breast
# HOP-92 NSCLC = tested on: HOP-92 NSCLC
# KM12 colon = tested on: KM12 colon
# TK-10 renal = tested on: TK-10 renal
# OVCAR-5 ovarian = tested on: OVCAR-5 ovarian
# HCT-116 colon = tested on: HCT-116 colon
# HOP-62 NSCLC = tested on: HOP-62 NSCLC
# NCI-H460 lung = tested on: NCI-H460 lung
# SNB-19 CNS = tested on: SNB-19 CNS
# CAKI-1 renal = tested on: CAKI-1 renal
Compound,GI50 (MDA-MB-231 breast) [µM],TGI (MDA-MB-231 breast) [µM],GI50 (HOP-92 NSCLC) [µM],TGI (HOP-92 NSCLC) [µM],GI50 (KM12 colon) [µM],TGI (KM12 colon) [µM],GI50 (TK-10 renal) [µM],TGI (TK-10 renal) [µM],GI50 (OVCAR-5 ovarian) [µM],TGI (OVCAR-5 ovarian) [µM],GI50 (HCT-116 colon) [µM],TGI (HCT-116 colon) [µM],GI50 (HOP-62 NSCLC) [µM],TGI (HOP-62 NSCLC) [µM],GI50 (NCI-H460 lung) [µM],TGI (NCI-H460 lung) [µM],GI50 (SNB-19 CNS) [µM],TGI (SNB-19 CNS) [µM],GI50 (CAKI-1 renal) [µM],TGI (CAKI-1 renal) [µM]
O=C(O)c1ccc([S-])cc1.[Au+].c1ccc(CN2[CH-]N(Cc3ccccc3)C(c3ccccc3)=C2c2ccccc2)cc1,0.304,1.18,0.204,0.806,0.513,1.82,0.613,1.98,0.918,2.2,0.301,1.26,0.416,1.73,0.328,1.28,,,,
CC1(C)N=C(N)N=C(N)N1c1ccc(CCc2ccc(Cl)cc2S(=O)(=O)F)c(Cl)c1,10.3,67.5,16.6,58.3,4.63,17.6,,,4.76,> 100,2.56,16.2,7,23,3.12,> 100,7.95,> 100,> 100,> 100
CCCCCCCC(=O)OCC1OC(n2cc(F)c(=O)[nH]c2=O)C(NC(=O)OCc2ccccc2)C(O)C1O (stereo not drawn),,,,65.2,,> 100,,> 100,,,,> 100,,> 100,,> 100,,> 100,,> 100
CCC(=O)C(C)C(=O)C(=O)C(=O)OC (stereo not drawn),,,,> 100,,> 100,,> 100,,> 100,,> 100,,> 100,,> 100,,> 100,,> 100
O=C1[C@H]2ON(c3ccccc3)C(c3ccccc3F)[C@H]2C(=O)N1c1ccc(Cc2ccc(N3C(=O)[C@@H]4ON(c5ccccc5)C(c5ccccc5F)[C@@H]4C3=O)cc2)cc1 (stereo partly drawn),,,,> 100,,> 100,,,,> 100,,,,> 100,,> 100,,,,> 100
O=C(O)C(C(=O)C(=O)C(C(=O)O)c1ccc(Cl)cc1)c1ccc(Cl)cc1 (stereo not drawn),,,,8.89,,13.4,,12.3,,13.6,,12.1,,16.9,,13.7,,14.3,,13.6
COc1ccc(SC2c3ccc(C)cc3Oc3nc(N)c(C#N)c(N)c32)cc1 (stereo not drawn),1.81,3.28,1.84,3.55,1.61,3.05,1.74,3.12,1.74,3.35,1.82,3.37,1.71,3.18,2.13,4.36,,,,
CC1=C(C(=O)Nc2ccc([N+](=O)[O-])cc2)C(c2ccccc2O)C(C(=O)Nc2ccc([N+](=O)[O-])cc2)=C(C)N1,,,,40.1,,55,,> 100,,55.8,,,,31.9,,56.4,,> 100,,62.1
CCCCOC(=O)c1ccc(NC(=O)CCl)cc1,1.63,3.26,1.93,3.65,2.07,4.52,1.91,3.85,2.16,4.45,1.29,2.86,1.99,3.96,3.09,10.7,1.62,3.22,,
O=[P+](O)c1cc2ccccc2c2ccccc12,,,,,,> 100,,> 100,,,,> 100,,> 100,,> 100,,> 100,,
COc1ccc(OC)c(NCC#N)c1,,,,> 100,,> 100,,> 100,,,,> 100,,> 100,,> 100,,> 100,,
CN(C(=O)C12C3(C(=O)C(C)(C)C)C4C5(C#N)C3C1(C(=O)C(C)(C)C)C5C42C(=O)C(C)(C)C)C(C)(C)C (stereo not drawn),,,,> 50,,> 50,,> 50,,> 50,,> 50,,> 50,,> 50,,> 50,,> 50
CN(C)C(=S)/N=c1\ss/c(=N\C(=S)N(C)C)n1-c1ccc(Cl)cc1,,,,> 100,,> 100,,> 100,,> 100,,> 100,,> 100,,> 100,,> 100,,> 100
O=c1nc(NC(c2ccccc2)(c2ccccc2)c2ccccc2)ccn1CCO,,,,> 100,,> 100,,> 100,,> 100,,> 100,,> 100,,> 100,,> 100,,
COc1ccc2c(c1)CCc1[nH]nc(-c3cc(OC)c(OC)c(OC)c3)c1-2,< 0.01,44.8,< 0.01,28.5,< 0.01,11.8,,,0.242,38.8,< 0.01,1.16,< 0.01,10.8,< 0.01,2.06,< 0.01,46.2,< 0.01,24.8
CCOC(=O)[C@H]1CSC[C@@H](C(=O)OC)N1,,,,,,> 100,,> 100,,> 100,,> 100,,> 100,,> 100,,> 100,,> 100
COc1ccc2nc(NCN3C(=O)c4ccccc4C3=O)sc2c1,,> 100,,> 100,,> 100,,> 100,,> 100,,> 100,,> 100,,> 100,,> 100,,
CSc1nc(SC)c2c(C(N)=S)[nH]nc2n1,,,,50.4,,> 100,,63.5,,,,,,58.5,,64.8,,90,,56.5
COC(=O)c1ccc(NC(=O)c2cc(OC)c(OC)c(OC)c2)cc1,,,,> 100,,> 100,,> 100,,,,> 100,,> 100,,> 100,,> 100,,
CCOC(=O)c1cc2c(cn1)[nH]c1cccc(N)c12,,,,> 100,,> 100,,> 100,,> 100,,> 100,,> 100,,> 100,,> 100,,> 100

Compound,GI50 (MDA-MB-231 breast) [µM],TGI (MDA-MB-231 breast) [µM],GI50 (HOP-92 NSCLC) [µM],TGI (HOP-92 NSCLC) [µM],GI50 (KM12 colon) [µM],TGI (KM12 colon) [µM],GI50 (TK-10 renal) [µM],TGI (TK-10 renal) [µM],GI50 (OVCAR-5 ovarian) [µM],TGI (OVCAR-5 ovarian) [µM],GI50 (HCT-116 colon) [µM],TGI (HCT-116 colon) [µM],GI50 (HOP-62 NSCLC) [µM],TGI (HOP-62 NSCLC) [µM],GI50 (NCI-H460 lung) [µM],TGI (NCI-H460 lung) [µM],GI50 (SNB-19 CNS) [µM],TGI (SNB-19 CNS) [µM],GI50 (CAKI-1 renal) [µM],TGI (CAKI-1 renal) [µM]
COc1cc(C=O)c(-c2cc3c(cc2C2(C)OCCS2)OCO3)c(OC)c1OC (stereo not drawn),,,,90.3,,34,,> 205,,129,,28.2,,47.1,,> 75.6,,168,,71.4
CCCCN=C(NC#N)N(Cc1ccccc1)Cc1ccccc1,,,,45.5,,> 100,,> 100,,87.5,,39.5,,62,,> 100,,> 100,,66.4
O=C1C2CC=CCC2C(=O)C12CCc1ccccc12 (stereo not drawn),,,,> 100,,,,> 100,,,,,,> 100,,> 100,,,,> 100
Cc1cc(Oc2cnc(=O)[nH]c2)cs1,,> 100,,,,> 100,,> 100,,> 100,,> 100,,> 100,,> 100,,> 100,,> 100
CC1(C)CCC[C@]2(C)c3cc(O)ccc3CC[C@@H]12,16.2,30.4,,,14.1,31.2,18.2,33.7,14,27.9,42.2,> 100,,,18.6,40.9,17,33.9,19.5,35.9
Cc1ccc(C(=O)N2c3ccccc3N(C)n3cccc3C2CC(=O)O)cc1 (stereo not drawn),,,,> 100,,> 100,,> 100,,> 100,,,,> 100,,> 100,,> 100,,> 100
O=C(NC12CC3CC(CC(C3)C1)C2)C(=O)c1c[nH]c2ccc([N+](=O)[O-])cc12,,,,> 90.5,,> 100,,> 100,,> 100,,> 100,,> 59.1,,> 72.3,,> 30.3,,> 100
N#Cc1ccc(C2C3=C(CCCC3=O)OC3=C2C(=O)c2ccccc2C3=O)cc1 (stereo not drawn),0.447,1.83,1.27,3.59,3.14,12.9,,,2.09,4.23,0.48,2.11,1.95,3.78,3.64,13.3,4.35,16,1.88,3.93
N#Cc1ccc(Nc2cnc3ccc(N)cc3n2)cc1,,,,> 100,,> 100,,> 100,,> 100,,> 100,,> 100,,> 100,,> 100,,> 100
CC(C)N1CCC2(CC1)NNc1ncccc1-n1cccc12,,,,,,> 100,,> 100,,> 100,,> 100,,> 100,,> 100,,> 100,,> 100
CC(C)(O)[C@@H]1CC[C@@]2(C)CCC[C@H](O)[C@H]2C1,,,,> 100,,> 100,,> 100,,> 100,,> 100,,> 100,,> 100,,> 100,,> 100
CN1CCN(C(=O)c2c(NC(=O)NS(=O)(=O)c3ccccc3)sc3c2CCCCC3)CC1,27.5,79.6,27.1,> 100,29.3,80.1,,,76.3,> 100,,,,,51,> 100,,,20.3,54.4
NC(CC(=O)Nc1ccc(Cl)cc1)=Nc1ccccc1,,,,,,> 100,,> 100,,> 100,,> 100,,> 100,,> 100,,> 100,,> 100
COC(=O)[C@@]1(O)CC(C)C=C1C=O (stereo partly drawn),,,,> 100,,> 100,,> 100,,> 100,,38.4,,> 100,,42.1,,> 100,,> 100
O=c1cc(-c2ccccc2)nc(/C=C(\O)c2ccncc2)n1-c1ccccc1,,,,> 100,,> 100,,> 100,,> 100,,> 100,,> 100,,> 100,,> 100,,> 100
Nc1nc(NC2C=C(CO)C(O)C2O)c([N+](=O)[O-])c(=O)[nH]1 (stereo not drawn),,,,> 100,,> 100,,> 100,,> 100,,> 100,,> 100,,> 100,,> 100,,> 100
COc1cc([C@H]2c3cc4c(cc3[C@H](NCc3ccc([N+](=O)[O-])cc3)C3COC(=O)[C@H]32)OCO4)cc(OC)c1O (stereo partly drawn),,,,> 100,,11.4,,7.08,,> 26,,> 86.1,,0.784,,2.18,,21.4,,4.58
CC(C)(c1ccc(Oc2ccc(C#N)c(C#N)c2)cc1)c1ccc(Oc2ccc(C#N)c(C#N)c2)cc1,,,> 100,> 100,> 100,> 100,> 100,> 100,> 100,> 100,> 100,> 100,> 100,> 100,> 100,> 100,> 100,> 100,> 100,> 100
O=C(Nc1ccc2[nH]c(C(=O)N3CC(CCl)c4c3cc([N+](=O)[O-])c3ccccc43)cc2c1)c1cc2ccccc2o1 (stereo not drawn),> 1100,> 1100,> 1100,> 1100,> 1100,> 1100,,,> 1100,> 1100,> 1100,> 1100,> 1100,> 1100,21,> 1100,> 1100,> 1100,> 1100,> 1100
COC1=C2C[C@H](O)C(C)C[C@@]2(OC)OC1=O (stereo partly drawn),,,,> 100,,> 100,,,,,,> 100,,> 100,,> 100,,> 100,,> 100
